Literature values in patent publication US6900176B2, “Pest control agents/depsipeptides” (priority 1999, dated 2005).

System: silkworms
Details: known from the literature (Kanaoka et al. 1979; JP 05 271 013)

CC(C)C[C@H]1C(=O)O[C@H](Cc2ccccc2)C(=O)N(C)[C@@H](CC(C)C)C(=O)O[C@H](C)C(=O)N(C)[C@@H](CC(C)C)C(=O)O[C@H](Cc2ccccc2)C(=O)N(C)[C@@H](CC(C)C)C(=O)O[C@H](C)C(=O)N1C [PF1022A]
insecticidal activity against silkworms: insecticidal activity

CC(C)C[C@H]1C(=O)O[C@H](C(C)C)C(=O)N(C)[C@@H](CC(C)C)C(=O)O[C@H](C(C)C)C(=O)N(C)[C@@H](CC(C)C)C(=O)O[C@H](C(C)C)C(=O)N(C)[C@@H](CC(C)C)C(=O)O[C@H](C(C)C)C(=O)N1C [bassianolide]
insecticidal activity against silkworms: insecticidal activity
